US12364696B2, “Treatment of autoimmune disease” (priority 2019, dated 2025)
Several values for one entry are separate records, joined by “and”; a condition that tells them apart may be missing. Identical values can stand only once. Entries after “also recorded” stand apart in the source; their conditions may differ. Like-named read-outs stand apart in the source and are kept apart here.

Tests used:
[1] = system: patients with alopecia areata; conditions: oral tofacitinib 5 mg twice daily for 6 months; cited from earlier work
[2] = system: patients with lichen planopilaris and frontal fibrosing alopecia; conditions: for Patient-reported response: ceased treatment
[3] = system: patients with chronic, refractory, moderate to severe alopecia areata; assay: Retrospective clinical study of orally administered and sublingual tofacitinib, 7-point assessment scale of hair regrowth; format: in vivo, human; conditions: for Increase in hair growth of >+1, % of patients / Increase in hair growth of >+1, number of patients / Mean score on 7-point assessment scale / Patients who achieved +3 (complete response, CR) / Median score on 7-point assessment scale: all patients
[4] = oral tofacitinib; cited from earlier work
[5] = dose range 1-20 mg, oral or sublingual
[6] = of 71 patients on immunosuppressive co-therapy at start
[7] = oral or sublingual, n = 127, listed as Tofacitinib
[8] = orally administered, 3 months, n = 39, mean dose 4.19 mg
[9] = orally administered, 6 months, n = 36, mean dose 4.96 mg
[10] = orally administered, 9 months, n = 25, mean dose 5.58 mg
[11] = orally administered, 12 months, n = 21, mean dose 5.63 mg
[12] = orally administered, 15 months, n = 16, mean dose 6.90 mg
[13] = orally administered, 18 months, n = 7, mean dose 6.07 mg
[14] = prolonged disease duration >10 years, n = 38
[15] = sublingual, 3 months, n = 88, mean dose 3.73 mg
[16] = sublingual, 6 months, n = 74, mean dose 4.48 mg
[17] = sublingual, 9 months, n = 53, mean dose 4.71 mg
[18] = sublingual, 12 months, n = 34, mean dose 6.25 mg
[19] = sublingual, 15 months, n = 15, mean dose 6.81 mg
[20] = sublingual, 18 months, n = 3, mean dose 5.00 mg
[21] = tofacitinib monotherapy, n = 56

C[C@@H]1CCN(C(=O)CC#N)C[C@@H]1N(C)c1ncnc2[nH]ccc12 [tofacitinib]
Response rate [1]: 64.9%
Side effects ([2]; Patient 1): No side effects
Activity of lichen planopilaris ([2]; Patient 1, sublingual 5-10 mg daily, July 2019 to February 2020, with concurrent medications): controlled
Side effects ([2]; Patient 2): No side effects
Symptoms of lichen planopilaris ([2]; Patient 2, up to 5 mg in the morning and 2.5 mg at night, with concurrent medications): symptom-free
Patient-reported response ([2]; Patient 3, lichen planopilaris, 2 mg twice daily increased to 7.5 mg): not happy with the response
Patient-reported response ([2]; Patient 4, lichen planopilaris/frontal fibrosing alopecia, 2.5 mg twice daily for 12 months): not happy with the response
Effect on symptoms of lichen planopilaris and frontal fibrosing alopecia ([2]; series of case studies, sublingual): demonstrated activity at reducing the symptoms
Late responders with CR ([3]; 31 late responders, 6 months): 2
Late responders with a score of 0 ([3]; 31 late responders, 6 months): 8
Late responders with a score of >+1 ([3]; 31 late responders, 6 months): 17
Late responders in CR ([3]; 31 late responders, 9 months): 4
Late responders with a score of >+1 ([3]; 31 late responders, 9 months): 20
Late responders who had achieved CR ([3]; 31 late responders, by 15 months): 10
Overall effect on hair loss and regrowth [3, 5]: arrested hair loss and stimulated regrowth in the overwhelming majority of patients; also recorded: highly effective
Tolerability [3, 5]: well tolerated
Patients who developed asymptomatic hepatic transaminitis leading to treatment discontinuation ([3]; later diagnosed with nonalcoholic steatohepatitis): One
Patients who discontinued all other immunosuppressive treatment after starting tofacitinib, % [3, 6]: 46%
Patients who discontinued all other immunosuppressive treatment after starting tofacitinib, number [3, 6]: Thirty-three
Early responders who achieved a +2 ([3]; of the 67 early responders): 40%
Early responders who achieved a +3 ([3]; of the 67 early responders): 22%
Patients who have remained in CR for >12 months ([3]; oral or sublingual): nine
Patients who remain in CR after six months of continued treatment ([3]; oral or sublingual): Twenty-four
Side effects ([3]; oral or sublingual): infrequent and mild
Increase in hair growth of >+1, % of patients ([3]; oral or sublingual, 3 months): 56%
Increase in hair growth of >+1, number of patients ([3]; oral or sublingual, 3 months): 71
Mean score on 7-point assessment scale ([3]; oral or sublingual, 3 months): 0.84 and 0.8
Patients who achieved +3 (complete response, CR) ([3]; oral or sublingual, 3 months): 12%
Median score on 7-point assessment scale ([3]; oral or sublingual, 3 months (IQR 0 to +2)): +1 (25-49% hair loss)
Mean score on 7-point assessment scale ([3]; oral or sublingual, 6 months): 1.1
Mean score on 7-point assessment scale ([3]; oral or sublingual, 9 months): 1.1
Increase in hair growth of >+1, % of patients ([3]; oral or sublingual, 12 months): 78%
Increase in hair growth of >+1, number of patients ([3]; oral or sublingual, 12 months): 43
Mean score on 7-point assessment scale ([3]; oral or sublingual, 12 months): 1.66 and 1.6
Patients who achieved +3 (complete response, CR) ([3]; oral or sublingual, 12 months): 40%
Median score on 7-point assessment scale ([3]; oral or sublingual, 12 months (IQR +1 to +3)): +2 (1-24% hair loss)
Mean score on 7-point assessment scale ([3]; oral or sublingual, 15 months): 1.9
Increase in hair growth of >+1, % of patients ([3]; oral or sublingual, 18 months): 90%
Increase in hair growth of >+1, number of patients ([3]; oral or sublingual, 18 months): 9
Mean score on 7-point assessment scale ([3]; oral or sublingual, 18 months): 2.33 and 2.4
Patients who achieved +3 (complete response, CR) ([3]; oral or sublingual, 18 months): 80%
Median score on 7-point assessment scale ([3]; oral or sublingual, 18 months (IQR +3 to +3)): +3 (No hair loss (SALT 0))
Early responders (>+1 score by 3 months of treatment), % of patients ([3]; oral or sublingual, n = 127): 53%
Early responders (>+1 score by 3 months of treatment), number of patients ([3]; oral or sublingual, n = 127): Sixty-seven
Late responders (>+1 score after 6 months of treatment), % of patients ([3]; oral or sublingual, n = 127): 24%
Late responders (>+1 score after 6 months of treatment), number of patients ([3]; oral or sublingual, n = 127): Thirty-one
Primary treatment failure (failed to respond), number of patients ([3]; oral or sublingual, n = 127): Twenty-four
Primary treatment failure, % of patients ([3]; oral or sublingual, n = 127): 19%
Relapse (at least one grade deterioration in score), number of patients ([3]; oral or sublingual, n = 127): Twenty-eight
Relapse, % of patients ([3]; oral or sublingual, n = 127): 22%
Primary treatment failure (failed to respond), number of patients [3, 7]: 24
Relapse (at least one grade deterioration in score), number of patients [3, 7]: 28
Score +1, number of patients [3, 8]: 7
Score +2, number of patients [3, 8]: 8
Score +3, % of patients [3, 8]: 18%
Score +3, number of patients [3, 8]: 7
Total non-responders, % of patients [3, 8]: 44%
Total non-responders, number of patients [3, 8]: 17
Total responders, % of patients [3, 8]: 56%
Total responders, number of patients [3, 8]: 22
Score +1, number of patients [3, 9]: 4
Score +2, number of patients [3, 9]: 7
Score +3, % of patients [3, 9]: 27%
Score +3, number of patients [3, 9]: 10
Total non-responders, % of patients [3, 9]: 42%
Total non-responders, number of patients [3, 9]: 15
Total responders, % of patients [3, 9]: 58%
Total responders, number of patients [3, 9]: 21
Score +1, number of patients [3, 10]: 3
Score +2, number of patients [3, 10]: 4
Score +3, % of patients [3, 10]: 48%
Score +3, number of patients [3, 10]: 12
Total non-responders, % of patients [3, 10]: 24%
Total non-responders, number of patients [3, 10]: 6
Total responders, % of patients [3, 10]: 76%
Total responders, number of patients [3, 10]: 19
Score +1, number of patients [3, 11]: 1
Score +2, number of patients [3, 11]: 5
Score +3, % of patients [3, 11]: 52%
Score +3, number of patients [3, 11]: 11
Total non-responders, % of patients [3, 11]: 19%
Total non-responders, number of patients [3, 11]: 4
Total responders, % of patients [3, 11]: 81%
Total responders, number of patients [3, 11]: 17
Score +1, number of patients [3, 12]: 1
Score +2, number of patients [3, 12]: 2
Score +3, % of patients [3, 12]: 56%
Score +3, number of patients [3, 12]: 9
Total non-responders, % of patients [3, 12]: 25%
Total non-responders, number of patients [3, 12]: 4
Total responders, % of patients [3, 12]: 75%
Total responders, number of patients [3, 12]: 12
Score +1, number of patients [3, 13]: 0
Score +2, number of patients [3, 13]: 1
Score +3, % of patients [3, 13]: 71%
Score +3, number of patients [3, 13]: 5
Total non-responders, % of patients [3, 13]: 14%
Total non-responders, number of patients [3, 13]: 1
Total responders, % of patients [3, 13]: 86%
Total responders, number of patients [3, 13]: 6
Secondary treatment failure, number of patients ([3]; out of 28 who experienced a relapse while on treatment): Five
Patients who achieved a CR, % ([3]; patients with AT/AU): 37%
Patients who achieved a CR, number ([3]; patients with AT/AU): 13
Patients who achieved a response, % ([3]; patients with AT/AU): 71%
Patients who achieved a response, number ([3]; patients with AT/AU): 25
Early responders, number of patients [3, 14]: 21
Late responders, number of patients [3, 14]: 10
Never responded, number of patients [3, 14]: 6
Patients who had regrowth [3, 14]: 81.6%
Relapsed, number of patients [3, 14]: 2
Score +1, number of patients [3, 15]: 21
Score +2, number of patients [3, 15]: 20
Score +3, % of patients [3, 15]: 9%
Score +3, number of patients [3, 15]: 8
Total non-responders, % of patients [3, 15]: 46.5%
Total non-responders, number of patients [3, 15]: 41
Total responders, % of patients [3, 15]: 53%
Total responders, number of patients [3, 15]: 49
Score +1, number of patients [3, 16]: 18
Score +2, number of patients [3, 16]: 17
Score +3, % of patients [3, 16]: 20%
Score +3, number of patients [3, 16]: 15
Total non-responders, % of patients [3, 16]: 32%
Total non-responders, number of patients [3, 16]: 24
Total responders, % of patients [3, 16]: 68%
Total responders, number of patients [3, 16]: 50
Score +1, number of patients [3, 17]: 13
Score +2, number of patients [3, 17]: 12
Score +3, % of patients [3, 17]: 26%
Score +3, number of patients [3, 17]: 14
Total non-responders, % of patients [3, 17]: 26%
Total non-responders, number of patients [3, 17]: 14
Total responders, % of patients [3, 17]: 74%
Total responders, number of patients [3, 17]: 39
Score +1, number of patients [3, 18]: 8
Score +2, number of patients [3, 18]: 11
Score +3, % of patients [3, 18]: 32%
Score +3, number of patients [3, 18]: 11
Total non-responders, % of patients [3, 18]: 15%
Total non-responders, number of patients [3, 18]: 5
Total responders, % of patients [3, 18]: 85%
Total responders, number of patients [3, 18]: 29
Score +1, number of patients [3, 19]: 3
Score +2, number of patients [3, 19]: 5
Score +3, % of patients [3, 19]: 40%
Score +3, number of patients [3, 19]: 6
Total non-responders, % of patients [3, 19]: 7%
Total non-responders, number of patients [3, 19]: 1
Total responders, % of patients [3, 19]: 93%
Total responders, number of patients [3, 19]: 14
Score +1, number of patients [3, 20]: 0
Score +2, number of patients [3, 20]: 0
Score +3, % of patients [3, 20]: 100%
Score +3, number of patients [3, 20]: 3
Total non-responders, number of patients [3, 20]: 0
Total responders, % of patients [3, 20]: 100%
Total responders, number of patients [3, 20]: 3
Early responders, % of patients [3, 21]: 51.7%
Early responders, number of patients [3, 21]: Twenty-nine
Late responders, % of patients [3, 21]: 19.6%
Late responders, number of patients [3, 21]: 11
Patients who achieved a CR [3, 21]: Eighteen
Primary failures, % of patients [3, 21]: 26.7%
Primary failures, number of patients [3, 21]: 15
Secondary failure, number of patients [3, 21]: 1
Reported elimination half-life [4]: 3 h
